From US8754100B2, “Nitrogen-containing fused heterocyclic compounds and their use as beta amyloid production inhibitors” (EISAI R&D Management Co., Ltd., priority 2009, dated 2014)

Each compound was assayed on Aβ42 production in rat primary neuronal culture (assay: Quantification of Aβ peptide (Aβ42 ELISA) in culture of neurons from rat fetus brain). Conditions: Rattus norvegicus, Neuron, 72 h; primary neuronal culture from cerebral cortex of embryonic day 18 Wistar rats; cultured three days after addition of compound; Aβ42 in medium by ELISA; read-out: Aβ42 Production reducing action IC50.
Assay type: cell-based
Protocol: Quantification of Aβ Peptide in Culture of Neurons from Rat Fetus Brain
(1) Rat Primary Neuronal Culture
Primary neuronal cultures were prepared from the cerebral cortex of embryonic day 18 Wistar rats (Charles River Japan, Yokohama, Japan). Specifically, the embryos were aseptically removed from pregnant rats under ether anesthesia. The brain was isolated from the embryo and immersed in an ice-cold L-15 medium (Invitrogen Corp. Cat #11415-064, Carlsbad, Calif., USA, or SIGMA L1518, for example). The cerebral cortex was collected from the isolated brain under a stereoscopic microscope. The cerebral cortex fragments collected were enzymatically treated in an enzyme solution containing 0.25% trypsin (Invitrogen Corp. Cat #15050-065, Carlsbad, Calif., USA) and 0.01% DNase (Sigma D5025, St. Louis, Mo., USA) at 37° C. for 30 minutes to disperse the cells. Here, the enzymatic reaction was stopped by adding inactivated horse serum to the solution. The enzymatically treated solution was centrifuged at 1,500 rpm for five minutes to remove the supernatant 5 to 10 ml of a medium was added to the resulting cell mass. Neurobasal medium (Invitrogen Corp. Cat #21103-049, Carlsbad, Calif., USA) supplemented with 2% B27 supplement (Invitrogen Corp. Cat #17504-044, Carlsbad, Calif., USA), 25 μM 2-mercaptoethanol (2-ME, WAKO Cat #139-06861, Osaka, Japan), 0.5 mM L-glutamine (Invitrogen Corp. Cat #25030-081, Carlsbad, Calif., USA), and Antibiotics-Antimycotics (Invitrogen Corp. Cat #15240-062, Carlsbad, Calif., USA) was used as the medium (Neurobasal/B27/2-ME). However, the above Neurobasal medium not supplemented with 2-ME (Neurobasal/B27) was used for the assay. The cells were redispersed by mild pipetting of the cell mass to which the medium was added. The cell dispersion was filtered through a 40-μm nylon mesh (Cell Strainer, Cat #35-2340, Becton Dickinson Labware, Franklin Lakes, N.J., USA) to remove the remaining cell mass, and thus a neuronal cell suspension was obtained. The neuronal cell suspension was diluted with the medium and then plated in a volume of 100 μl/well at an initial cell density of 5×10^5 cells/cm^2 in a 96-well polystyrene culture plate pre-coated with poly-L or D-lysine (Falcon Cat #35-3075, Becton Dickinson Labware, Franklin Lakes, N.J., USA coated with poly-L-lysine using the method shown below, or BIOCOAT™ cell environments Poly-D-lysine cell ware 96-well plate, Cat #35-6461, Becton Dickinson Labware, Franklin Lakes, N.J., USA). Poly-L-lysine coating was carried out as follows. 100 μg/ml of a poly-L-lysine (SIGMA P2636, St. Louis, Mo., USA) solution was aseptically prepared with a 0.15 M borate buffer (pH 8.5). […] Thereafter, the coated 96-well polystyrene culture plate was washed with sterile water four or more times, and then dried or rinsed with sterile PBS or medium, and used for cell plating. The plated cells were cultured in the culture plate at 37° C. in 5% CO2-95% air for one day. Then, the total amount of the medium was replaced with a fresh Neurobasal/B27/2-ME medium, and then the cells were cultured for further three days.
The drug was added to the culture plate on Day 4 of culture as follows. The total amount of the medium was removed from the wells, and 180 μl/well of Neurobasal medium not containing 2-ME and containing 2% B-27 (Neurobasal/B27) was added thereto. A solution of the test compound in dimethyl sulfoxide (hereinafter abbreviated as DMSO) was diluted with Neurobasal/B27 to a concentration 10-fold higher than the final concentration. 20 μl/well of the dilution was added to and sufficiently mixed with the medium. The final DMSO concentration was 1% or less. Only DMSO was added to the control group.
The cells were cultured for three days after addition of the compound, and the total amount of the medium was collected. The resulting medium was used as an ELISA sample. […]

Structure (SMILES) | IC50 [nM]
COc1nc(-c2cn3c(n2)C(c2ccccc2C(F)(F)F)CCC3)ccc1-n1cnc(C)c1 (single isomer, unassigned) [Example 102, (−)-2-[6-methoxy-5-(4-methylimidazol-1-yl)pyridin-2-yl]-8-(2-trifluoromethylphenyl)-5,6,7,8-tetrahydroimidazo[1,2-a]pyridine] | 55
COc1nc(-c2cn3c(n2)[C@H](c2ccccc2C(F)(F)F)CC3)ccc1-n1cnc(C)c1 (single isomer, unassigned) [Example 104, (−)-2-[6-methoxy-5-(4-methylimidazol-1-yl)pyridin-2-yl]-7-(2-trifluoromethylphenyl)-6,7-dihydro-5H-pyrrolo[1,2-a]imidazole] | 91
COc1nc(-c2cn3c(n2)[C@H](c2ccc(Cl)cc2C(F)(F)F)CCC3)ccc1-n1cnc(C)c1 (single isomer, unassigned) [Example 108, (−)-8-(4-chloro-2-trifluoromethylphenyl)-2-[6-methoxy-5-(4-methylimidazol-1-yl)pyridin-2-yl]-5,6,7,8-tetrahydroimidazo[1,2-a]pyridine] | 18
COc1cc(C)c(C2CCCn3nc(-c4ccc(-n5cnc(C)c5)c(OC)n4)nc32)cc1C(C)C (single isomer, unassigned; (-)) [Example 2, (−)-8-(5-isopropyl-4-methoxy-2-methylphenyl)-2-[6-methoxy-5-(4-methylimidazol-1-yl)pyridin-2-yl]-5,6,7,8-tetrahydro[1,2,4]triazolo[1,5-a]pyridine] | 10
COc1nc(-c2nc3n(n2)CCC[C@@H]3c2cc(-c3ccc(C(F)(F)F)cn3)ccc2Cl)ccc1-n1cnc(C)c1 (stereo in doubt) [Example 361, (−)-8-[2-chloro-5-(5-trifluoromethylpyridine-2-yl)phenyl]-2-[6-methoxy-5-(4-methyl-1H-imidazole-1-yl)pyridine-2-yl]-5,6,7,8-tetrahydro[1,2,4]triazolo[1,5-a]pyridine] | 13
COc1nc(-c2cn3c(n2)[C@H](c2ccc(Br)cc2C(F)(F)F)CCC3)ccc1-n1cnc(C)c1 [Example 100, (−)-8-(4-bromo-2-trifluoromethylphenyl)-2-[6-methoxy-5-(4-methylimidazol-1-yl)pyridin-2-yl]-5,6,7,8-tetrahydroimidazo[1,2-a]pyridine] | 9
COc1cc([C@@H]2CCCn3nc(-c4ccc(-n5cnc(C)c5)c(OC)n4)nc32)cc(C(C)(C)C)c1 [Example 187] | 11
COc1cc([C@@H]2CCCn3nc(-c4ccc(-n5cnc(C)c5)c(OC)n4)nc32)ccc1C(C)(C)C [Example 191] | 7
COc1nc(-c2nc3n(n2)CCC[C@H]3c2cccc(C(C)(C)C)c2)ccc1-n1cnc(C)c1 [Example 193] | 13
COc1nc(-c2nc3n(n2)CCC[C@H]3c2cc(C(C)(C)C)ccc2F)ccc1-n1cnc(C)c1 [Example 197] | 13
COc1nc(-c2nc3n(n2)CCC[C@H]3c2cc(C(C)(C)C)ccc2Br)ccc1-n1cnc(C)c1 [Example 199] | 6
COc1nc(-c2nc3n(n2)CCC[C@H]3c2cc(C(C)(C)C)c(F)cc2F)ccc1-n1cnc(C)c1 [Example 211] | 15
COc1nc(-c2nc3n(n2)CCC[C@H]3c2cc(C(C)(C)C#N)c(Cl)cc2Cl)ccc1-n1cnc(C)c1 [Example 225] | 28
COc1nc(-c2cn3c(n2)[C@H](c2cccc(C(C)(C)C)c2OC)CCC3)ccc1-n1cnc(C)c1 [Example 239] | 12
COc1cc([C@@H]2CCCn3cc(-c4ccc(-n5cnc(C)c5)c(OC)n4)nc32)ccc1C(C)(C)C [Example 240] | 5
COc1nc(-c2cn3c(n2)[C@H](c2ccc(C(C)(C)C)cc2)CCC3)ccc1-n1cnc(C)c1 [Example 242] | 9
COc1nc(-c2cn3c(n2)[C@H](c2cc(C(C)(C)C#N)ccc2Cl)CCC3)ccc1-n1cnc(C)c1 [Example 245] | 16
COc1nc(-c2cn3c(n2)[C@H](c2ccc(C(C)(C)C#N)cc2Cl)CCC3)ccc1-n1cnc(C)c1 [Example 246] | 55

Structure (SMILES) | IC50 [nM]
COc1nc(-c2cn3c(n2)[C@H](c2cc(Br)ccc2C(F)(F)F)CCC3)ccc1-n1cnc(C)c1 [Example 250] | 13
COc1nc(-c2nc3n(n2)CCC[C@@H]3c2cc(C(C)(C)OC)ccc2Cl)ccc1-n1cnc(C)c1 [Example 267, (−)-2-[6-methoxy-5-(4-methyl-1H-imidazol-1-yl)pyridin-2-yl]-8-(2-chloro-5-(1-methoxy-1-methylethyl)phenyl)-5,6,7,8-tetrahydro[1,2,4]triazolo[1,5-a]pyridine] | 29
COc1nc(-c2nc3n(n2)CCC[C@H]3c2cc(N3CCCCC3)ccc2Br)ccc1-n1cnc(C)c1 [Example 279] | 8
COc1nc(-c2nc3n(n2)CCC[C@H]3c2ccc(Cl)c(N3CCCCC3)c2)ccc1-n1cnc(C)c1 [Example 287] | 22
COc1nc(-c2nc3n(n2)CCC[C@H]3c2ccc(N3CCCCC3)cc2Cl)ccc1-n1cnc(C)c1 [Example 295] | 33
COc1nc(-c2nc3n(n2)CCC[C@H]3c2ccc(N(CC3CC3)CC(F)(F)F)cc2Cl)ccc1-n1cnc(C)c1 [Example 307] | 13
COc1nc(-c2nc3n(n2)CCC[C@H]3c2ccc(N(CC(F)(F)F)C3CC3)cc2Cl)ccc1-n1cnc(C)c1 [Example 309] | 14
COc1nc(-c2nc3n(n2)CCC[C@H]3c2cc(N3CCC(C)CC3)ccc2Cl)ccc1-n1cnc(C)c1 [Example 311] | 12
COc1nc(-c2nc3n(n2)CCC[C@H]3c2cc(N(CC3CC3)CC(F)(F)F)ccc2Cl)ccc1-n1cnc(C)c1 [Example 313] | 6
COc1nc(-c2nc3n(n2)CCC[C@H]3c2cc(N(CC3CC3)CC3CC3)ccc2Cl)ccc1-n1cnc(C)c1 [Example 315] | 4
COc1nc(-c2nc3n(n2)CCC[C@H]3c2cc(N3CCC(C(F)(F)F)CC3)ccc2Cl)ccc1-n1cnc(C)c1 [Example 317] | 15
COc1nc(-c2nc3n(n2)CCC[C@H]3c2cc(N3CC(C)CC(C)C3)ccc2Cl)ccc1-n1cnc(C)c1 (stereo partly shown) [Example 319] | 10
COc1ccc(C(C)(C)C(F)(F)F)cc1[C@@H]1CCCn2nc(-c3ccc(-n4cnc(C)c4)c(OC)n3)nc21 [Example 331] | 12
COc1nc(-c2nc3n(n2)CCC[C@H]3c2ccc3c(c2)C(C)(C)CN3CC(F)(F)F)ccc1-n1cnc(C)c1 [Example 337] | 13
COc1nc(-c2nc3n(n2)CCC[C@H]3c2cc(N3CCCC3)ccc2Cl)ccc1-n1cnc(C)c1 [Example 347] | 30
COc1nc(-c2nc3n(n2)CCC[C@H]3c2cc(-c3ccccc3)ccc2Cl)ccc1-n1cnc(C)c1 [Example 359] | 16
COc1nc(-c2nc3n(n2)CCC[C@H]3c2ccc(N3CCCCCC3)cc2)ccc1-n1cnc(C)c1 [Example 383] | 21

Same assay, conditions: primary neuronal culture from cerebral cortex of embryonic day 18 Wistar rats; cultured three days after addition of compound; Aβ42 in medium by ELISA; read-out: Aβ42 Production reducing action IC50

Structure (SMILES) | IC50 [nM]
COc1nc(-c2nc3n(n2)CCC[C@H]3c2ccc(Br)cc2C(F)(F)F)ccc1-n1cnc(C)c1 [Example 42, −8-4-bromo-2-trifluoromethylphenyl-2-[6-methoxy-5-(4-methylimidazol-1-yl)pyridin-2-yl]-5,6,7,8-tetrahydro[1,2,4]triazolo[1,5-a]pyridine] | 52
COc1ccc([C@@H]2CCCn3nc(-c4ccc(-n5cnc(C)c5)c(OC)n4)nc32)cc1C(C)(C)C [Example 59] | 7
